Several values for one entry are separate records, joined by “and”; a condition that tells them apart may be missing. Identical values can stand only once. Like-named read-outs stand apart in the source and are kept apart here.
Tests used:
[1] = test system: P. falciparum Dd2-2D4; test: P. falciparum asexual blood stage (ABS) growth assay, SYBR Green, 72 h, wild-type parasites; type: cell-based, Plasmodium falciparum; details: Plasmodium falciparum, DD2; SI Fig 16b; values on -log scale; read-out: ABS - Dd2-2D4 (converted)
[2] = molecular target: T1, PfcProRS (Plasmodium falciparum, UniProt Q8I5R7); type: binding; details: for dose-response signal (normalized), SI Fig 8: single replicates
T1 construct: made in house; host or cells: E. coli SoluBL-21
T1 sequence (Q8I5R7 249-746): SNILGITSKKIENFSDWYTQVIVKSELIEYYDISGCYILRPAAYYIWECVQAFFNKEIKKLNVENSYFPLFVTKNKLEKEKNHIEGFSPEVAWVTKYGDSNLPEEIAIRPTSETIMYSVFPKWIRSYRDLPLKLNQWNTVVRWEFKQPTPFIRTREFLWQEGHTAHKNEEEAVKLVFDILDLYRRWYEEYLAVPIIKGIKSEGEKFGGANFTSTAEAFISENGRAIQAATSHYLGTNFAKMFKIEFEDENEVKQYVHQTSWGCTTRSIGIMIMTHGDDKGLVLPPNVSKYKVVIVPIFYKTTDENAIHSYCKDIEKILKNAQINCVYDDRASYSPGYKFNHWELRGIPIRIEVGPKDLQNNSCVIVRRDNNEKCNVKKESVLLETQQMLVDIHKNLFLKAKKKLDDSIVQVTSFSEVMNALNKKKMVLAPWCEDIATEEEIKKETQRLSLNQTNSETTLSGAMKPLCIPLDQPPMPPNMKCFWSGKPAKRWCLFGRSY

[3] = molecular target: HsProRS (Homo sapiens, UniProt P07814); test: TR-FRET ligand displacement assay with tracer MAT379 (CoraFluor-1-Halo and anti-His6 antibody formats); type: binding; design: made in house; host or cells: E. coli SoluBL-21; details: for TR-FRET dose-response, normalized signal (SI Fig 11): individual replicates
Sequence of HsProRS (P07814 996-1512): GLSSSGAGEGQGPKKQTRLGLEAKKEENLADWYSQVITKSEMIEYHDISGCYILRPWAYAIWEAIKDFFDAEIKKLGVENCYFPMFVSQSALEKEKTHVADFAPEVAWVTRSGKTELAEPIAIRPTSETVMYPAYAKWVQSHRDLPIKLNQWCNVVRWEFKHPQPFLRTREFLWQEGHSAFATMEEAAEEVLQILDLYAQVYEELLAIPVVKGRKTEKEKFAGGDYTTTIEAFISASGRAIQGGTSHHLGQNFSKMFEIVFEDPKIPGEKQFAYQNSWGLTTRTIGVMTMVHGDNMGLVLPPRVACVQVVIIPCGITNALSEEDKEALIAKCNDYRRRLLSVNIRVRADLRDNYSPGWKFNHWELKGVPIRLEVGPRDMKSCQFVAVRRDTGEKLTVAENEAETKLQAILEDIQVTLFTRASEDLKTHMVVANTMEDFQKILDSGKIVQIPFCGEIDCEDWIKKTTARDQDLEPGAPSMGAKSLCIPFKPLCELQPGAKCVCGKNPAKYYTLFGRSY

O=C(NC1Cc2ccccc2C1)c1nccnc1NC(=O)N1CCC(CCO)CC1 [compound 12]
EC50 [1]: 153 nM
dose-response signal (normalized), SI Fig 8 ([2]; Log[inhibitor] (M) -5.000): 1.96E-01 and 6.39E-02 and 9.88E-02
dose-response signal (normalized), SI Fig 8 ([2]; Log[inhibitor] (M) -5.301): 1.70E-01 and 1.45E-01 and 2.26E-01
dose-response signal (normalized), SI Fig 8 ([2]; Log[inhibitor] (M) -5.601): 3.61E-01 and 2.68E-01 and 3.67E-01
dose-response signal (normalized), SI Fig 8 ([2]; Log[inhibitor] (M) -5.904): 5.30E-01 and 5.32E-01 and 5.86E-01
dose-response signal (normalized), SI Fig 8 ([2]; Log[inhibitor] (M) -6.208): 7.40E-01 and 8.32E-01 and 8.18E-01
dose-response signal (normalized), SI Fig 8 ([2]; Log[inhibitor] (M) -6.509): 9.11E-01 and 8.45E-01 and 9.67E-01
dose-response signal (normalized), SI Fig 8 ([2]; Log[inhibitor] (M) -6.796): 1.07E+00 and 9.35E-01 and 8.42E-01
dose-response signal (normalized), SI Fig 8 ([2]; Log[inhibitor] (M) -7.108): 1.04E+00 and 9.91E-01 and 9.07E-01
dose-response signal (normalized), SI Fig 8 ([2]; Log[inhibitor] (M) -7.409): 1.05E+00 and 1.07E+00 and 9.30E-01
dose-response signal (normalized), SI Fig 8 ([2]; Log[inhibitor] (M) -7.710): 9.50E-01 and 9.05E-01 and 1.01E+00
dose-response signal (normalized), SI Fig 8 ([2]; Log[inhibitor] (M) -8.000): 1.00E+00 and 9.33E-01 and 9.19E-01
dose-response signal (normalized), SI Fig 8 ([2]; Log[inhibitor] (M) -8.301): 1.00E+00 and 9.74E-01 and 1.08E+00
dose-response signal (normalized), SI Fig 8 ([2]; Log[inhibitor] (M) -8.602): 9.86E-01 and 9.74E-01 and 9.65E-01
dose-response signal (normalized), SI Fig 8 ([2]; Log[inhibitor] (M) -9.000): 9.41E-01 and 9.53E-01 and 9.73E-01
dose-response signal (normalized), SI Fig 8 ([2]; Log[inhibitor] (M) -9.301): 9.78E-01 and 8.31E-01 and 1.01E+00
PfcProRS -- best Kd ([2]; SI Fig 16a, values on -log scale): 6.470
Kd ([3]; HsProRS (KD [nM]) mean, no added proline/ATP (-)): 687 nM
Kd ([3]; HsProRS - best Kd, SI Fig 16a, values on -log scale): 150 nM
normalized TR-FRET ligand displacement signal, dose-response replicates (SI Fig 6) ([3]; Log[inhibitor] (M) -5.000): 1.59E-01 and 1.60E-01 and 2.09E-01
TR-FRET dose-response, normalized signal (SI Fig 11) ([3]; Log[inhibitor] (M) -5.000): 3.68E-02 (2×) and 3.81E-02
normalized TR-FRET ligand displacement signal, dose-response replicates (SI Fig 6) ([3]; Log[inhibitor] (M) -5.301): 3.23E-01 and 2.51E-01 and 1.66E-01
TR-FRET dose-response, normalized signal (SI Fig 11) ([3]; Log[inhibitor] (M) -5.301): 1.17E-01 and 1.16E-01 and 1.37E-01
normalized TR-FRET ligand displacement signal, dose-response replicates (SI Fig 6) ([3]; Log[inhibitor] (M) -5.601): 4.15E-01 (2×) and 3.76E-01
TR-FRET dose-response, normalized signal (SI Fig 11) ([3]; Log[inhibitor] (M) -5.601): 3.29E-01 and 2.78E-01 and 2.37E-01
normalized TR-FRET ligand displacement signal, dose-response replicates (SI Fig 6) ([3]; Log[inhibitor] (M) -5.904): 6.44E-01 and 5.20E-01 and 5.13E-01
TR-FRET dose-response, normalized signal (SI Fig 11) ([3]; Log[inhibitor] (M) -5.904): 4.76E-01 and 4.29E-01 and 4.93E-01
normalized TR-FRET ligand displacement signal, dose-response replicates (SI Fig 6) ([3]; Log[inhibitor] (M) -6.208): 7.49E-01 and 7.87E-01 and 7.20E-01
TR-FRET dose-response, normalized signal (SI Fig 11) ([3]; Log[inhibitor] (M) -6.208): 5.93E-01 and 6.01E-01 and 5.70E-01
normalized TR-FRET ligand displacement signal, dose-response replicates (SI Fig 6) ([3]; Log[inhibitor] (M) -6.509): 9.12E-01 and 8.62E-01 and 8.67E-01
TR-FRET dose-response, normalized signal (SI Fig 11) ([3]; Log[inhibitor] (M) -6.509): 7.07E-01 and 6.82E-01 and 7.18E-01
normalized TR-FRET ligand displacement signal, dose-response replicates (SI Fig 6) ([3]; Log[inhibitor] (M) -6.796): 1.06E+00 and 1.12E+00 and 9.20E-01
TR-FRET dose-response, normalized signal (SI Fig 11) ([3]; Log[inhibitor] (M) -6.796): 7.97E-01 and 7.75E-01 and 7.79E-01
normalized TR-FRET ligand displacement signal, dose-response replicates (SI Fig 6) ([3]; Log[inhibitor] (M) -7.108): 1.07E+00 and 1.02E+00 and 1.12E+00
TR-FRET dose-response, normalized signal (SI Fig 11) ([3]; Log[inhibitor] (M) -7.108): 8.56E-01 and 8.75E-01 and 8.83E-01
normalized TR-FRET ligand displacement signal, dose-response replicates (SI Fig 6) ([3]; Log[inhibitor] (M) -7.409): 1.02E+00 and 1.06E+00 (2×)
TR-FRET dose-response, normalized signal (SI Fig 11) ([3]; Log[inhibitor] (M) -7.409): 8.85E-01 and 8.47E-01 and 8.63E-01
normalized TR-FRET ligand displacement signal, dose-response replicates (SI Fig 6) ([3]; Log[inhibitor] (M) -7.710): 9.85E-01 and 1.01E+00 and 9.72E-01
TR-FRET dose-response, normalized signal (SI Fig 11) ([3]; Log[inhibitor] (M) -7.710): 8.80E-01 and 8.88E-01 and 8.59E-01
normalized TR-FRET ligand displacement signal, dose-response replicates (SI Fig 6) ([3]; Log[inhibitor] (M) -8.000): 9.44E-01 and 9.64E-01 and 9.22E-01
TR-FRET dose-response, normalized signal (SI Fig 11) ([3]; Log[inhibitor] (M) -8.000): 9.20E-01 and 9.38E-01 and 9.24E-01
normalized TR-FRET ligand displacement signal, dose-response replicates (SI Fig 6) ([3]; Log[inhibitor] (M) -8.301): 9.32E-01 and 1.05E+00 and 8.26E-01
TR-FRET dose-response, normalized signal (SI Fig 11) ([3]; Log[inhibitor] (M) -8.301): 8.82E-01 and 8.99E-01 and 9.20E-01
normalized TR-FRET ligand displacement signal, dose-response replicates (SI Fig 6) ([3]; Log[inhibitor] (M) -8.602): 1.02E+00 and 1.07E+00 and 9.72E-01
TR-FRET dose-response, normalized signal (SI Fig 11) ([3]; Log[inhibitor] (M) -8.602): 9.41E-01 and 8.91E-01 and 9.25E-01
normalized TR-FRET ligand displacement signal, dose-response replicates (SI Fig 6) ([3]; Log[inhibitor] (M) -9.000): 9.71E-01 and 8.87E-01 and 1.00E+00
TR-FRET dose-response, normalized signal (SI Fig 11) ([3]; Log[inhibitor] (M) -9.000): 9.29E-01 and 9.20E-01 and 9.52E-01
normalized TR-FRET ligand displacement signal, dose-response replicates (SI Fig 6) ([3]; Log[inhibitor] (M) -9.301): 1.06E+00 and 9.50E-01 and 9.98E-01
TR-FRET dose-response, normalized signal (SI Fig 11) ([3]; Log[inhibitor] (M) -9.301): 9.00E-01 and 9.10E-01 and 9.03E-01
